The text below walks through data of patent EP0522596A1, “Method and means for inducing constriction of the pupil in the eye” (Kabi Pharmacia AB, priority 1989, dated 1993).

“Also recorded” adds a separate entry of the source. Ends that are not written are not given here.

For experiment [1], the system named is sphincter muscle of the iris. Particulars: injected into the anterior chamber; Bill et al., 1979; cited from earlier work.
Experiment [2] deals with pupil. The following applies: primates; Mandahl et al., 1980; cited from earlier work.
Experiment [3] relates to receptor present on the sphincter muscle. The experiment is classed as in vivo. Particulars: nerve blockade with tetrodotoxin; pretreatment with indomethacin.
In experiment [4] the test system is pupil. The experiment in a line: Capsaicin-induced miosis in monkeys with and without Lorglumide pretreatment. The experiment is classed as in vivo, Macaca fascicularis. How it is done: Example 7: Monkeys (Macaca fascicularis) were anesthesized, pretreated with atropine and cannulated as described in Example 1. Then 10 µl of a 1% solution of Capsaicin was injected into the anterior chamber; the diameter of the pupil was measured 15 minutes later. The decrease in pupil size obtained with this dose varied from 0 to 1.5 mm.

The test system of experiment [5] is pupil. The experiment in a line: Antagonism of the CCK-8 miosis dose-response in the monkey eye in vivo. The arrangement: species or system monkeys. Particulars: 0.75 µg of Lorglumide injected into the anterior chamber. How it is done: Example 5: Dose-response determination of CCK-8 was carried out on one eye of atropine treated, pentobarbital anesthesized monkeys in accordance with the description in Example 1. Thereafter 0.75µg of Lorglumide in 15µl of isotonic saline was injected into the anterior chamber of the other eye. The CCK-8 dose-response relationship was then determined in the same way as in the case of the first eye.

As to “substance P (RPKPQQFFGLM; ends and bridges not checked; UniProt P20366 58-68, looked up) [neuropeptide released in the eye on irritation; synthetically produced]”, the “response of the sphincter muscle of the iris” value in experiment [1] is “substantial contractive response”. Moreover, the “pupillary response to substance P” value in the experiment on pupil [2] is given as “totally absent”.
On to `COc1ccc2c(c1)c(CC(=O)O)c(C)n2C(=O)c1ccc(Cl)cc1` [indomethacin], for which the “effect of pretreatment on the miosis response to CCK” value in experiment [3] was “do not cause a decrease in the miosis response”.
As to `COc1cc(CNC(=O)CCCCC=CC(C)C)ccc1O` [Capsaicin, 8-methyl-N-vanillyl-6-nonenamide], in the experiment with pupil [4] (cynomolgus monkey, in vivo), the “miotic response in monkeys” value is “less consistent and less pronounced as compared to the response in rabbits”.
On to `CCCCCN(CCCCC)C(=O)C(CCC(=O)O)NC(=O)c1ccc(Cl)c(Cl)c1` (racemic) [Lorglumide, D,L-4-(3,4-dichlorobenzoylamino)-5-(dipentylamino)-5-oxo-pentanoic acid], for which, in the experiment on pupil [5], the “shift of the CCK-8 dose-response curve to the right” value was “more than one order of magnitude”. Besides, the “effect on the pupil response to Capsaicin” value in the experiment on pupil [4] (pretreatment with 7.5 µg Lorglumide in 15 µl, capsaicin-sensitive animals) is recorded as “decreased the response to Capsaicin; also recorded: most of the effect on the pupil was eliminated”.
